Results reported in patent EP0485217A2, “Hydantoin derivatives, and their use in preventing and treating diabetic complications and circulatory organ diseases” (priority 1990, dated 1992).
Where two headings read alike, the source gives them in different places. Marks after values point to notes of the source that are not given here.

Columns and labels:
[1] = test system: platelet aggregation; assay: In-vitro inhibition of platelet aggregation in platelet rich plasma; type: cell-based, rat
Protocol: Then, the residues were centrifuged to obtain a supernatant fluid in the form of platelet poor plasma (PPP for short). For measurement, an amount of PRP collected from two to four animals was pooled. The platelet aggregation test was carried out with NBS HEMA TRACER (Model PAT-60 made by Niko Bioscience Co., Ltd.). […] After 1-minute preincubation, 3 µl of the test compound were added and, one minute later, 30 µl of an aggregation inducer (collagen or ADP) were introduced. Added to a control group was the test compound together with 3 µl of dimethyl sulfoxide. Upon the addition of the aggregation inducer, a maximum transmittance change was read to find a platelet aggregation change in %.

[2] = test system: platelet aggregation; assay: Ex-vivo inhibition of platelet aggregation after intravenous administration; type: in vivo, rat; conditions: inhibition relative to control, blood 5 minutes after dosing; for Collagen (10 μM): inducer collagen
Protocol: The thus treated blood was centrifuged at 1500 rpm for 5 minutes to obtain a supernatant fluid in the form of PRP. The residues were then again centrifuged at 4°C and 3000 rpm for 10 minutes to obtain a supernatant fluid in the form of PPP. […] of PRP were put in a PRP cuvette having a stirrer bar with the transmittance set at 0%, while 300 µl of PPP were put in a PPP cuvette with the transmittance set at 100%. After 1-minute preincubation, 20 µl of an aggregation inducer (collagen or ADP) were introduced.
A control group, to which dimethylacetamide and tartaric acid in a ratio of 2/3 were given in a quantity of 1 ml/kg, was treated as with the test group. Upon the addition of the aggregation inducer, a maximum transmittance change was read to find a platelet aggregation change in %.

[3] = test system: right atrium; assay: Extracted heart, right atrium sample (heart rate); parameters: species or system Hartley guinea pigs; conditions: Cavia porcellus, read-out: Heart Rates
Text: (§1) Stunned by receving a blow on the heads, Hartley guinea pigs (weighing 300-400 g) were fixed on the back regions to extract their hearts. […] This vessel was previously filled with a Krebs-Henseleit solution and the above gaseous mixture continued to be supplied thereto during preparing the sample.
(§2) In order to prepare the sample, the right and left atria were cut out of the ventricular muscule along the atriventricular sulcus from the center of both the right and left auricles.
The contraction of the sample was recorded on a recorder through an FD pickup simultaneously with counting and recording the beat with an instantaneous cardiograph unit.

[4] = test system: left atrium; assay: Extracted heart, left atrium sample (systole force, electrically stimulated); parameters: species or system Hartley guinea pigs; conditions: Cavia porcellus, read-out: Systole Forces
Text: as §1, §2
While a platinum bipolar electrode attached to the above-mentioned micro wire clamp was in contact with the atrium, stimuli were given to it by 1-Hz, 2-msec. and 10-V rectangular waves derived through an electrical stimulator and an isolator to record the movement of said atrium with an FD pickup connected with it through silk thread.

[5] = test system: Extracted Guinea Pigs' Aortae; assay: Relaxation of extracted thoracic aorta contracted by KCl or NE; parameters: species or system Hartley guinea pigs; conditions: Cavia porcellus
Text: Stunned by receiving a blow on the head, Hartley guinea pigs (weighing 300-500 g) were fixed at the back regions, and the thoracic aortae were then extracted to prepare helical samples, each ca. 2 mm in width and ca. 25 mm in length. Each sample was suspended in a Magnus tube under a load of ca. 1 g and connected at the upper end with an FD pickup by means of silk thread to record its isometric tension change on a recorder.
Prior to initiating the experiment, the sample was allowed to stand for 60 to 90 minutes, during which the Krebs-Henseleit solution was replaced by a new one at an interval of 20 to 30 minutes. […] Finally, papaverine was additionally provided to regulate the final concentration to 2 x 10- ^5g/ml, thereby observing and recording what relaxing reaction took place.
The state stabilized by the addition of KCI or NE was defined as a 100% relaxation rate, on the basis of which what reaction took place at each concentration was relatively estimated.

[6] = biological target: aldose reductase (Rattus norvegicus, UniProt P07943); assay: Action on aldose reductase inhibition (method of Kador et al.); type: biochemical; conditions: 50 % inhibition of aldose reductase
Text: Chem.", Vol. 8, page 81 (1978) to detrermine how much they inhibited aldose reductase.
Note that IC50 is an index to the 50 % inhibition of aldose reductase.

[7] = test system: poikilocytes; assay: Ex-vivo amelioration of poikilocytes (filtration under pressure of erythrocyte suspension); type: in vivo; conditions: rat
Protocol: (§3) Five minutes after the test compound had been intravenously administered to the tail of a rat, blood was gathered from the descending aorta of the rat which was lightly etherized. Added to this blood was citric acid (3.8% sodium citrate) in a volume ratio of 1/10.
Blood gathered with the addition of citric acid was centrifuged at 4°C and 1500 rpm for 10 minutes. The supernatant fluid was discarded. Added to the residues was physiological saline in an amount of about 1.5 times as large, again followed by 10-minute centrifugation at 4°C and 1500 rpm. The supernatant fluid was discarded. One hundred (100) µl of erythrocytes left upon such procedures repeated twice were diluted with physiological saline to prepare 50 ml of a 0.2 % erythrocyte suspension. This suspension was incubated at 37°C for 5 minutes, cooled down to room temperature and examined to find how much the poikilocytes were ameliorated by the filtration-under-pressure procedures described by F. Katsuraya in "Geriatric Medicine", Vol. 20, pp. 151-156 (1982).
To this end, the suspension sample was passed from a continuous feeder through a Millipore membrane having a mean pore size of […] at a rate of 5 ml/min, during which the pressure on the upstream side of the membrane was measured through a pressure transducer with a pressure amplifier and, at the same time, was recorded on a polygraph chart sheet.

[8] = test system: coronary artery bloodstream; assay: Coronary bloodstream of dogs under anesthesia (i.v.); type: in vivo; conditions: anesthetized dogs, control 8.7±2.1
Protocol: Fully developed, mongrel male and female dogs were each put under anesthesia with sodium pentobarbital and subjected to commissurotomy while artificial respiration was applied to them. The coronary artery bloodstream was determined with an electromagnetic bloodstream probe attached to the ramus circumflexus of the left coronary artery.
Each of the test compounds was administered to the animal through a cannula fixedly inserted into the cephalic vein.

[9] = test system: erythrocytes; assay: Oxygen dissociation of erythrocytes (HEMOX-ANALYZER), ex vivo; type: in vivo, rat; conditions: 10 mg/kg; control mean 31.08
Text: as §3
Blood gathered with the addition of heparin was used to determine the oxygen dissociation of the erthro- cytes with HEMOX-ANALYZER.

[10] = Rattus norvegicus, read-out: IC50 Collagen
[11] = 10^-4(M), right atrium, suppression
[12] = 10^-5(M), right atrium, suppression
[13] = 10^-4(M), left atrium, suppression
[14] = 10^-5(M), left atrium, suppression
[15] = rat PRP, aggregation inducer collagen, read-out: IC50 Collagen
[16] = 50% relaxation, contraction by KCl 2.5 x 10^-2M, read-out: IC50(M) Contraction by KCl
[17] = 50% relaxation, contraction by norepinephrine 10^-6 g/ml, read-out: IC50(M) Contraction by NE

SMILES: CC(=O)Oc1ccccc1C(=O)O [Aspirin, reference compound]
- IC50 [1, 10]: 210 µM
- Collagen (10 μM) ([2]; 30.0 mg/kg intravenously): 77%

SMILES: CC(C(O)c1ccc(O)cc1)N1CCC(Cc2ccccc2)CC1 (stereo not shown) [B, ifenprodil, reference compound]
- inhibition at 100 µM [3, 11]: > 20%
- inhibition at 10 µM [3, 12]: > 20%
- inhibition at 100 µM [4, 13]: 10 to 20%
- inhibition at 10 µM [4, 14]: 0%

SMILES: COc1cc(/C=C/C(=O)N2CCN(CC(=O)N3CCCC3)CC2)cc(OC)c1OC [Cinepazid, reference compound]
- IC50 ([5]; read-out: IC50(M) Contraction by KCl): 0.002 M
- IC50 ([5]; read-out: IC50(M) Contraction by NE): 0.001 M

SMILES: O=C1NC(=O)[C@@]2(C[C@@H](C(=O)N3CCC(Cc4ccccc4)CC3)Oc3ccc(F)cc32)N1 [Compound 1]
- IC50 [6]: 0.31 µM
- IC50 [1, 15]: 630 µM
- ADP (1 x 10^-6M) ([2]; 1.0 mg/kg intravenously, inducer ADP 1 x 10^-6M): 44* %
- Collagen (10 μM) ([2]; 1.0 mg/kg intravenously): 57%
- Amelioration in % ([7]; 0.1 mg/kg intravenously): 29.3%
- IC50 [5, 16]: 1.3e-06 M
- IC50 [5, 17]: 1e-05 M
- inhibition at 100 µM [3, 11]: 0%
- inhibition at 10 µM [3, 12]: 0%
- inhibition at 100 µM [4, 13]: 10 to 20%
- inhibition at 10 µM [4, 14]: 0%
- C.B.S. (coronary bloodstream) ([8]; 0.1 mg/kg i.v.): 9.6±6.9

SMILES: O=C1NC(=O)[C@@]2(C[C@@H](C(=O)N3CCN(C(c4ccccc4)c4ccccc4)CC3)Oc3ccc(F)cc32)N1 [Compound 2, 4-diphenylmethyl-1-{(2S,4S)-6-fluoro-2,5'-dioxospiro[chromane-4,4'-imidazolidine]-2-carbonyl}piperazine]
- IC50 [6]: 0.045 µM
- IC50 ([1]; rat PRP, aggregation inducer ADP, read-out: IC50 ADP): 770 µM
- IC50 [1, 15]: 430 µM
- Amelioration in % ([7]; 1.0 mg/kg intravenously): 37.9%
- P50 in mmHg Mean [9]: 32.58 mmHg
- IC50 [5, 16]: 0.00012 M
- IC50 [5, 17]: 1e-06 M
- inhibition at 100 µM [3, 11]: > 20%
- inhibition at 10 µM [3, 12]: 10 to 20%
- inhibition at 100 µM [4, 13]: 10 to 20%
- inhibition at 10 µM [4, 14]: 0%
- C.B.S. (coronary bloodstream) ([8]; 1.0 mg/kg i.v.): 13.8±2.9

SMILES: O=C1NC(=O)[C@@]2(C[C@@H](C(=O)N3CCN(CC=Cc4ccccc4)CC3)Oc3ccc(F)cc32)N1 [Compound 3, 4-cinnamyl-1-{(2S,4S)-6-fluoro-2',5'-dioxospiro[chromane-4,4'-imidazolidine]-2-carbonyl}piperazine]
- IC50 [6]: 0.41 µM
- IC50 [1, 15]: 370 µM
- IC50 [5, 16]: > 0.001 M
- IC50 [5, 17]: > 0.001 M
- inhibition at 100 µM [3, 11]: > 20%
- inhibition at 10 µM [3, 12]: 10 to 20%
- inhibition at 100 µM [4, 13]: 10 to 20%
- inhibition at 10 µM [4, 14]: 0%

SMILES: CC(C)NCC(O)COc1cccc2ccccc12 (stereo not shown) [Control A, propranolol, reference compound]
- inhibition at 10 µM [3]: > 20%
- inhibition at 100 µM [3]: > 20%
- inhibition at 10 µM [4]: > 20%
- inhibition at 100 µM [4]: > 20%

SMILES: COc1ccc2c(c1)c(CC(=O)O)c(C)n2C(=O)c1ccc(Cl)cc1 [Indomethacin, reference compound]
- IC50 [1, 10]: 68 µM
- Collagen (10 μM) ([2]; 30.0 mg/kg intravenously): 49%
